Results reported in US20220395472A1 (Dermavant Sciences GmbH, priority 2021, published 2022).

Tested on: adults with plaque psoriasis
Experiment: Long-term open-label extension study (PSOARING 3): Physician Global Assessment (PGA), treatment episodes, treatment success, remittive effect
Type: in vivo, human
Protocol: This extension study consisted of up to 40 weeks of treatment and a 4 week, safety follow up period.
At the completion of the Week 12 visit of the DB, pivotal Phase 3 study, eligibility of the subjects opting to enroll in this extension study was confirmed. Study visits during the treatment period for all subjects occurred every 4 weeks (±3 days). A phone call was performed at Week 2 (Day 15). Unscheduled visits may have occurred, as needed. Subjects who withdrew from this study before Week 40 returned to the study center for an Early Termination visit. The total duration of this extension study participation was 44 weeks. Subjects in this study were treated as follows based on their PGA score from the Week 12 visit in the DB, pivotal Phase 3 study (Study DMVT 505 3001 or Study DMVT 505 3002).
The PGA was used to assess the primary efficacy endpoint in this study. The PGA is a clinical tool for assessing the current state/severity of a subject's psoriasis at a given time point. It is a static, 5 point, morphological assessment of overall disease severity, as determined by the Investigator, using the clinical characteristics of erythema, scaling, and plaque thickness/elevation as guidelines; higher PGA scores represent more severe disease (0=clear, 1=almost clear, 2=mild, 3=moderate, and 4=severe). The BSA affected was not considered in scoring of the PGA. Variations of the PGA are frequently used in clinical studies because it is a simple assessment, similar to those used in clinical practice. The PGA was performed first, prior to the % BSA, PASI, and LTS assessments.
Time to event parameters, such as the time from treatment success to subsequent worsening (PGA≥2) or duration of treatment episode, were summarized by the Kaplan Meier product limit method using OC.

[1] = Baseline PGA = 1, Tapinarof (Pivotal) group
[2] = Baseline PGA = 1, Vehicle (Pivotal) group
[3] = Baseline PGA = 2, Tapinarof (Pivotal) group

**Q.** With `CC(C)c1c(O)cc(/C=C/c2ccccc2)cc1O` [Tapinarof, 3,5-Dihydroxy-4-isopropyl-trans-stilbene] as the compound, how does the “Duration of 3rd Success, Mean (SD)” value (Baseline PGA = 1, Overall) read?
**A.** 15.0 (19.80) days

**Q.** What about the “Duration of 3rd Success, Median” value (Baseline PGA = 1, Overall) of the same compound?
**A.** 15.0 days

**Q.** What about the “Duration of Last Episode, Mean (SD)” value (Baseline PGA = 1, Overall) of the same compound?
**A.** 146.7 (95.87) days

**Q.** What about the “Duration of Last Episode, Median” value (Baseline PGA = 1, Overall) of the same compound?
**A.** 141.0 days

**Q.** What about the “Duration of Last Success, Median” value (Baseline PGA = 1, Overall) of the same compound?
**A.** 90.0 days

**Q.** What about the “Total Duration of Treatment Episodes, Mean (SD)” value (Baseline PGA = 1, Overall) of the same compound?
**A.** 165.9 (90.32) days

**Q.** What about the “Total Duration of Treatment Episodes, Median” value (Baseline PGA = 1, Overall) of the same compound?
**A.** 193.0 days

**Q.** What about the “Total Duration of Treatment Success, Mean (SD)” value (Baseline PGA = 1, Overall) of the same compound?
**A.** 124.5 (78.53) days

**Q.** And the “Total Duration of Treatment Success, Median” value (Baseline PGA = 1, Overall)?
**A.** 120.0 days

**Q.** And the “Average Duration of Episodes, Mean (SD)” value [1]?
**A.** 138.9 (94.99) days

**Q.** And the “Average Duration of Episodes, Median” value [1]?
**A.** 112.0 days

**Q.** What about the “Average Duration of Treatment Success, Mean (SD)” value [1] of the same compound?
**A.** 106.8 (76.36) days

**Q.** And the “Average Duration of Treatment Success, Median” value [1]?
**A.** 92.5 days

**Q.** What about the “Duration of 1st Episode, Mean (SD)” value [1] of the same compound?
**A.** 132.6 (99.69) days

**Q.** And the “Duration of 1st Episode, Median” value [1]?
**A.** 85.5 days

**Q.** And the “Duration of 1st Success, Mean (SD)” value [1]?
**A.** 106.3 (77.57) days

**Q.** What about the “Duration of 1st Success, Median” value [1] of the same compound?
**A.** 86.0 days

**Q.** What about the “Duration of 2nd Episode, Mean (SD)” value [1] of the same compound?
**A.** 97.9 (62.19) days

**Q.** What about the “Duration of 2nd Episode, Median” value [1] of the same compound?
**A.** 83.0 days

**Q.** What about the “Duration of 2nd Success, Mean (SD)” value [1] of the same compound?
**A.** 71.6 (58.68) days

**Q.** What about the “Duration of 2nd Success, Median” value [1] of the same compound?
**A.** 52.0 days

**Q.** And the “Duration of 3rd Episode, Mean (SD)” value [1]?
**A.** 54.9 (56.83) days

**Q.** What about the “Duration of 3rd Episode, Median” value [1] of the same compound?
**A.** 28.0 days

**Q.** What about the “Duration of 3rd Success, Mean (SD)” value [1] of the same compound?
**A.** 15.0 (19.80) days

**Q.** What about the “Duration of 3rd Success, Median” value [1] of the same compound?
**A.** 15.0 days

**Q.** What about the “Duration of Last Episode, Mean (SD)” value [1] of the same compound?
**A.** 145.2 (96.38) days

**Q.** What about the “Duration of Last Episode, Median” value [1] of the same compound?
**A.** 144.0 days

**Q.** What about the “Duration of Last Success, Mean (SD)” value [1] of the same compound?
**A.** 107.2 (79.80) days

**Q.** What about the “Duration of Last Success, Median” value [1] of the same compound?
**A.** 85.5 days

**Q.** And the “Total Duration of Treatment Episodes, Mean (SD)” value [1]?
**A.** 165.9 (90.68) days

**Q.** What about the “Total Duration of Treatment Episodes, Median” value [1] of the same compound?
**A.** 194.5 days

**Q.** And the “Total Duration of Treatment Success, Mean (SD)” value [1]?
**A.** 123.7 (78.29) days

**Q.** What about the “Total Duration of Treatment Success, Median” value [1] of the same compound?
**A.** 116.5 days

**Q.** What about the “Average Duration of Episodes, Mean (SD)” value [2] of the same compound?
**A.** 150.0 (97.54) days

**Q.** What about the “Average Duration of Episodes, Median” value [2] of the same compound?
**A.** 112.0 days

**Q.** What about the “Average Duration of Treatment Success, Mean (SD)” value [2] of the same compound?
**A.** 116.9 (71.80) days

**Q.** And the “Average Duration of Treatment Success, Median” value [2]?
**A.** 127.0 days

**Q.** And the “Duration of 1st Episode, Mean (SD)” value [2]?
**A.** 141.1 (105.95) days

**Q.** What about the “Duration of 1st Episode, Median” value [2] of the same compound?
**A.** 112.0 days

**Q.** And the “Duration of 1st Success, Mean (SD)” value [2]?
**A.** 115.0 (71.74) days

**Q.** What about the “Duration of 1st Success, Median” value [2] of the same compound?
**A.** 127.0 days

**Q.** And the “Duration of 2nd Episode, Mean (SD)” value [2]?
**A.** 104.0 (61.27) days

**Q.** What about the “Duration of 2nd Episode, Median” value [2] of the same compound?
**A.** 109.5 days

**Q.** And the “Duration of 2nd Success, Mean (SD)” value [2]?
**A.** 144.0 (NE) days

**Q.** What about the “Duration of 2nd Success, Median” value [2] of the same compound?
**A.** 144.0 days

**Q.** What about the “Duration of Last Episode, Mean (SD)” value [2] of the same compound?
**A.** 159.0 (93.38) days

**Q.** And the “Duration of Last Episode, Median” value [2]?
**A.** 134.0 days

**Q.** What about the “Duration of Last Success, Mean (SD)” value [2] of the same compound?
**A.** 118.9 (72.32) days

**Q.** And the “Duration of Last Success, Median” value [2]?
**A.** 136.0 days

**Q.** And the “Total Duration of Treatment Episodes, Mean (SD)” value [2]?
**A.** 165.5 (89.94) days

**Q.** What about the “Total Duration of Treatment Episodes, Median” value [2] of the same compound?
**A.** 140.0 days

**Q.** What about the “Total Duration of Treatment Success, Mean (SD)” value [2] of the same compound?
**A.** 131.0 (85.06) days

**Q.** What about the “Total Duration of Treatment Success, Median” value [2] of the same compound?
**A.** 136.0 days

**Q.** What about the “Average Duration of Episodes, Mean (SD)” value (Baseline PGA = 2, Overall) of the same compound?
**A.** 175.5 (93.95) days

**Q.** And the “Average Duration of Episodes, Median” value (Baseline PGA = 2, Overall)?
**A.** 197.0 days

**Q.** And the “Average Duration of Treatment Success, Mean (SD)” value (Baseline PGA = 2, Overall)?
**A.** 83.6 (69.31) days

**Q.** And the “Average Duration of Treatment Success, Median” value (Baseline PGA = 2, Overall)?
**A.** 66.5 days

**Q.** And the “Duration of 1st Episode, Mean (SD)” value (Baseline PGA = 2, Overall)?
**A.** 177.8 (92.43) days

**Q.** And the “Duration of 1st Episode, Median” value (Baseline PGA = 2, Overall)?
**A.** 197.0 days

**Q.** And the “Duration of 1st Success, Mean (SD)” value (Baseline PGA = 2, Overall)?
**A.** 90.4 (72.34) days

**Q.** And the “Duration of 1st Success, Median” value (Baseline PGA = 2, Overall)?
**A.** 83.0 days

**Q.** And the “Duration of 2nd Episode, Mean (SD)” value (Baseline PGA = 2, Overall)?
**A.** 67.5 (52.79) days

**Q.** What about the “Duration of 2nd Episode, Median” value (Baseline PGA = 2, Overall) of the same compound?
**A.** 59.0 days

**Q.** What about the “Duration of 2nd Success, Mean (SD)” value (Baseline PGA = 2, Overall) of the same compound?
**A.** 31.9 (43.41) days

**Q.** What about the “Duration of 2nd Success, Median” value (Baseline PGA = 2, Overall) of the same compound?
**A.** 27.5 days

**Q.** What about the “Duration of 3rd Episode, Mean (SD)” value (Baseline PGA = 2, Overall) of the same compound?
**A.** 28.7 (27.50) days

**Q.** What about the “Duration of 3rd Episode, Median” value (Baseline PGA = 2, Overall) of the same compound?
**A.** 29.0 days

**Q.** What about the “Duration of 3rd Success, Mean (SD)” value (Baseline PGA = 2, Overall) of the same compound?
**A.** 29.0 (NE) days

**Q.** What about the “Duration of 3rd Success, Median” value (Baseline PGA = 2, Overall) of the same compound?
**A.** 29.0 days

**Q.** And the “Duration of Last Episode, Mean (SD)” value (Baseline PGA = 2, Overall)?
**A.** 173.2 (97.88) days

**Q.** What about the “Duration of Last Episode, Median” value (Baseline PGA = 2, Overall) of the same compound?
**A.** 197.0 days

**Q.** And the “Duration of Last Success, Mean (SD)” value (Baseline PGA = 2, Overall)?
**A.** 77.3 (73.84) days

**Q.** What about the “Duration of Last Success, Median” value (Baseline PGA = 2, Overall) of the same compound?
**A.** 56.0 days

**Q.** And the “Total Duration of Treatment Episodes, Mean (SD)” value (Baseline PGA = 2, Overall)?
**A.** 188.8 (87.61) days

**Q.** And the “Total Duration of Treatment Episodes, Median” value (Baseline PGA = 2, Overall)?
**A.** 200.0 days

**Q.** What about the “Total Duration of Treatment Success, Mean (SD)” value (Baseline PGA = 2, Overall) of the same compound?
**A.** 98.0 (74.01) days

**Q.** And the “Total Duration of Treatment Success, Median” value (Baseline PGA = 2, Overall)?
**A.** 84.0 days

**Q.** What about the “Average Duration of Episodes, Mean (SD)” value [3] of the same compound?
**A.** 177.3 (95.45) days

**Q.** And the “Average Duration of Episodes, Median” value [3]?
**A.** 197.0 days

**Q.** What about the “Average Duration of Treatment Success, Mean (SD)” value [3] of the same compound?
**A.** 78.7 (71.03) days

**Q.** What about the “Average Duration of Treatment Success, Median” value [3] of the same compound?
**A.** 57.0 days

**Q.** And the “Duration of 1st Episode, Mean (SD)” value [3]?
**A.** 179.2 (94.49) days

**Q.** And the “Duration of 1st Episode, Median” value [3]?
**A.** 197.0 days
